{
  "source": "paper PMC5010535",
  "about": "(Cancer research, 2016)",
  "key": {"LNCaP-abl cells [1]": {"system": "LNCaP-abl cells", "experiment": "Cell proliferation assay, LNCaP-abl cells", "assay_type": "cell-based", "details": "72 hours"}, "LNCaP-abl cells [2]": {"system": "LNCaP-abl cells", "experiment": "Clonogenic assay, LNCaP-abl cells", "assay_type": "cell-based", "details": "10 μM, 10 days"}, "in vitro [3]": {"experiment": "in vitro", "details": "rat, liver microsomes"}, "in vitro [4]": {"experiment": "in vitro", "details": "liver microsomes"}, "UBE2C": {"system": "UBE2C", "experiment": "UBE2C mRNA expression in LNCaP-95 cells", "assay_type": "cell-based", "details": "10 μM, 48 hours"}},
  "data": [
    {"smiles": "C#C[C@]1(O)CC[C@H]2[C@@H]3CCC4=CC(=O)CC[C@]4(C)[C@H]3CC[C@@]21C", "note": "[ethisterone]", "values": [
      {"measurement": "EC50 (concentration required to inhibit the proliferation by 50%)", "setting": "LNCaP-abl cells [1]; highest concentration tested 100 μM", "value": "failed to reach 50% inhibition at the maximal concentration tested"}
    ]},
    {"smiles": "CNC(=O)c1ccc(N2C(=S)N(c3cnc(C#N)c(C(F)(F)F)c3)C(=O)C23CCC3)cc1F", "note": "[ARN509]", "values": [
      {"measurement": "effect on LNCaP-abl cellular proliferation", "setting": "LNCaP-abl cells [1]; 10 μM", "value": "not growth inhibited"},
      {"measurement": "effect on colony formation", "setting": "LNCaP-abl cells [2]", "value": "Neither enzalutamide nor ARN509 could effectively prevent colony formation"}
    ]},
    {"smiles": "CC(C)NCC(O)COc1cccc2ccccc12", "note": "(stereo not shown) [Propranolol, propranolol]", "values": [
      {"measurement": "remaining at 1 h, 1.09 µM", "setting": "in vitro [3]", "value": 58.7, "unit": "%"}
    ]},
    {"smiles": "CCOc1ccc(NC(C)=O)cc1", "note": "[phenacetin]", "values": [
      {"measurement": "half-life at 1.09 µM", "setting": "in vitro [4]", "value": "~1.33", "unit": "h"}
    ]},
    {"smiles": "CNC(=O)c1ccc(N2C(=S)N(c3ccc(C#N)c(C(F)(F)F)c3)C(=O)C2(C)C)cc1F", "note": "[enzalutamide]", "values": [
      {"measurement": "effect on colony formation", "setting": "LNCaP-abl cells [2]", "value": "Neither enzalutamide nor ARN509 could effectively prevent colony formation"},
      {"measurement": "UBE2C mRNA expression", "setting": "UBE2C", "value": "significantly increased UBE2C mRNA expression"}
    ]}
  ]
}
